{"source": "patent US7319015B2", "about": "“Methods and compositions for using alveolar macrophage phospholipase A2” (The Regents of The University of Michigan, priority 2004, dated 2008)", "key": {"[1]": {"biological_target": "T1, 1-O-acylceramide synthase (LPLA2) (Bos taurus, UniProt Q8WMP9)", "T1 sequence (Q8WMP9 30-407)": "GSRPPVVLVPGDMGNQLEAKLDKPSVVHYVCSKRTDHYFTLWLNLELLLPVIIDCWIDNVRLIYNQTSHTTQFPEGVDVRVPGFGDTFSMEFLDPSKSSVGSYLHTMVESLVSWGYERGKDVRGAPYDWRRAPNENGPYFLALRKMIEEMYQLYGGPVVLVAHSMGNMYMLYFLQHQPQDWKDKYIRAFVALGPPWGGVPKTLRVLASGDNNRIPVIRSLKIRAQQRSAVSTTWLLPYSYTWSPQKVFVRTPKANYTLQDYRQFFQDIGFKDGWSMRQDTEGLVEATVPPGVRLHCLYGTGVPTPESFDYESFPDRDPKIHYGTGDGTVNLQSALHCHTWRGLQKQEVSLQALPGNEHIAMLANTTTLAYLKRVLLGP", "conditions": "initial characterization of the enzyme, cited from earlier work"}, "[2]": {"biological_target": "LPLA2 (Rattus norvegicus, UniProt Q675A5)", "sequence (Q675A5 34-413)": "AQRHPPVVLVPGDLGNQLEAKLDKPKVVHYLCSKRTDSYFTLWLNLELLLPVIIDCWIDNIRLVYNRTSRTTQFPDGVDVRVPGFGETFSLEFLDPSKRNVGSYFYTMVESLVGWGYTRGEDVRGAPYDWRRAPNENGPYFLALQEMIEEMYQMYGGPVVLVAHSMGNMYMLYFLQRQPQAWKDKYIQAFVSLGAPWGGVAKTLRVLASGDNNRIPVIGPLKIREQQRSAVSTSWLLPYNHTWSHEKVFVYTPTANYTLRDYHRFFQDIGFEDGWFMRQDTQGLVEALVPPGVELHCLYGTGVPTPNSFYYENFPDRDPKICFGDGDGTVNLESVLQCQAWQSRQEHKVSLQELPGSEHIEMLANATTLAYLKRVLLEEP", "conditions": "rat AM soluble fraction 2.42 μg protein/ml, citrate buffer pH 4.5, 40 μM NAS, different concentrations of MJ33", "procedure": "(§1) Phospholipids, DOPC and PE, and N-acetylsphingosine (NAS) were used in the assay system as a donor and an acceptor, respectively, of an acyl group. The transacylase activity was determined by analysis of 1-O-acyl-N-acetylsphingosine formation rate. The reaction mixture consisted of 45 mM sodium citrate (pH 4.5), 10 μg/ml bovine serum albumin, 40 μM NAS incorporated into phospholipid liposomes (DOPC/PE/dicetyl phosphate/NAS (5:2:1:2 in molar ratio)) and soluble fraction (0.7-10 μg) in a total volume of 500 μl. The reaction was initiated by adding the soluble fraction, kept for 5-60 min at 37° C. and terminated by adding 3 ml of chloroform/methanol (2:1) plus 0.3 ml of 0.9% (w/v) NaCl. The mixture was centrifuged for 5 min at room temperature. The resultant lower layer was transferred into another glass tube and dried down under a stream of nitrogen gas. The dried lipid dissolved in 40 μl of chloroform/methanol (2:1) was applied on an HPTLC plate and developed in a solvent system consisting of chloroform/acetic acid (9:1). The plated was dried down and soaked in 8% (w/v) CuSO4, 5H2O, 6.8% (v/v) H3PO4, 32% (v/v) methanol. […]\n(§2) In the studies the effect of MJ33 on LPLA2 transacylation activity in rat alveolar macrophages and c-myc-tagged mouse LPLA2 transfected COS 7 cells was also determined. […] The enzyme activity was determined as described in the Example 1."}, "[3]": {"biological_target": "c-myc-tagged mouse LPLA2 (Mus musculus, UniProt Q8VEB4)", "sequence (Q8VEB4 34-412)": "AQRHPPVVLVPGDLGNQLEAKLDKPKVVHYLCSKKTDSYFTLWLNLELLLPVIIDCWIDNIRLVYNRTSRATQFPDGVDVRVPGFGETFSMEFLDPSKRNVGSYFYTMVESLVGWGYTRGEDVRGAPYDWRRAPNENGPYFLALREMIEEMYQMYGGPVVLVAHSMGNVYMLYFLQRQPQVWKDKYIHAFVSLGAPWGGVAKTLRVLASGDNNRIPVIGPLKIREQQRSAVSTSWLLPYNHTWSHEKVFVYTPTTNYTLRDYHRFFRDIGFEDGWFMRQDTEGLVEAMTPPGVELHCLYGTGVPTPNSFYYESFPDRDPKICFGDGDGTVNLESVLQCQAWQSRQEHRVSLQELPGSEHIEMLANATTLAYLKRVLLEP", "conditions": "soluble fraction of LPLA2 transfected COS 7 cells 2.26 μg protein/ml, citrate buffer pH 4.5, 40 μM NAS", "procedure": "as §1, §2"}, "[4]": {"test_system": "surfactant phospholipid catabolism", "conditions": "rats treated with MJ33 (Fisher et al. 2001); cited from earlier work"}, "[5]": {"test_system": "dipalmitoyl-phosphatidylcholine degradation", "conditions": "murine lung, previously demonstrated; cited from earlier work"}, "[6]": {"biological_target": "T2, LPLA2 (Canis lupus familiaris, UniProt Q6XPZ3)", "T2 construct": "endogenous in cells; host or cells: MDCK cell homogenate", "T2 sequence (Q6XPZ3 32-408)": "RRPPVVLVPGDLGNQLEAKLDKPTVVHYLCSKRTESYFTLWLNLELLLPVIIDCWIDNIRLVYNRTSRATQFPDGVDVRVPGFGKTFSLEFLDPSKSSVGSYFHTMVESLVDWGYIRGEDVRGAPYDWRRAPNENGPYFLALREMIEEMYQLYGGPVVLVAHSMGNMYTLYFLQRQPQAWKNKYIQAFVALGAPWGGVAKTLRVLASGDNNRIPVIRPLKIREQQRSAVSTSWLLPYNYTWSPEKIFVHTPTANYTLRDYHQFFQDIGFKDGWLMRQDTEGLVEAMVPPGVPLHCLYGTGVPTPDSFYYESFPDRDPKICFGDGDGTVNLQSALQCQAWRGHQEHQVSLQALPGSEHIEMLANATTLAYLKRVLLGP", "experiment": "LPLA2 (transacylase/phospholipase A2) activity assay in MDCK cell homogenates with cationic amphiphilic drugs", "assay_type": "biochemical", "conditions": "FIG. 1A; for inhibition of LPLA2 transacylase and phospholipase A2 activity (in words): enzyme assay for LPLA2 activity", "procedure": "Phospholipids, DOPC and PE, and N-acetylsphingosine (NAS) were used in the assay system as a donor and an acceptor, respectively, of an acyl group. The transacylase activity was determined by analysis of 1-O-acyl-N-acetylsphingosine formation rate. The reaction mixture consisted of 45 mM sodium citrate (pH 4.5), 10 μg/ml bovine serum albumin, 40 μM NAS incorporated into phospholipid liposomes (DOPC/PE/dicetyl phosphate/NAS (5:2:1:2 in molar ratio)) and soluble fraction (0.7-10 μg) in a total volume of 500 μl. The reaction was initiated by adding the soluble fraction, kept for 5-60 min at 37° C. and terminated by adding 3 ml of chloroform/methanol (2:1) plus 0.3 ml of 0.9% (w/v) NaCl. The mixture was centrifuged for 5 min at room temperature. The resultant lower layer was transferred into another glass tube and dried down under a stream of nitrogen gas. The dried lipid dissolved in 40 μl of chloroform/methanol (2:1) was applied on an HPTLC plate and developed in a solvent system consisting of chloroform/acetic acid (9:1). The plated was dried down and soaked in 8% (w/v) CuSO4, 5H2O, 6.8% (v/v) H3PO4, 32% (v/v) methanol. The uniformly wet plate was briefly dried down by a hair dryer and charred for 15 min in a 150° C. oven. The plate was scanned and the amount of the reaction products was estimated by NIH-image 1.62.\nRes., 35:1232-1240, 1994]. PDMP and its related homologs contain a hydrophilic domain with a substituted nitrogen and a hydrophobic aromatic group, functional groups that are typical of CADs in general."}, "[7]": {"test_system": "MDCK cells"}, "[8]": {"test_system": "MDCK cells", "conditions": "MDCK cells treated at the IC50 for transacylase inhibition, 7 days, FIG. 2"}, "[9]": {"test_system": "CHO cells", "conditions": "CHO cells (Rosenwald and Pagano 1994); cited from earlier work"}}, "note": "Several values for one entry are separate records, joined by “and”; a condition that tells them apart may be missing. Equal entries are not always repeated. Entries after “also recorded” stand apart in the source; their conditions may differ. Where two headings read alike, the source gives them in different places."}
{"smiles": "CCCCC/C=C\\C/C=C\\C/C=C\\C/C=C\\CCCC(=O)C(F)(F)F", "note": "[nonadecyltetraenyl trifluoromethyl ketone]", "values": [{"measurement": "inhibition of enzyme activity", "setting": "[1]", "result": "insensitive; also recorded: did not inhibit"}]}
{"smiles": "CCCCCCCCCCCCCCCCOCC(COCC(F)(F)F)OP(=O)(O)OC", "note": "(centres unmarked) [MJ33]", "values": [{"measurement": "inhibition of transacylase activity", "setting": "[2]", "result": "concentration dependent inhibition"}, {"measurement": "inhibition of transacylase activity", "setting": "[3]", "result": "comparable response"}, {"measurement": "inhibition of surfactant phospholipid catabolism", "setting": "[4]", "result": "40 to 50", "unit": "%"}, {"measurement": "block of dipalmitoyl-phosphatidylcholine degradation", "setting": "[5]", "result": "block the majority"}]}
{"smiles": "CCCCCCCCCC(=O)N[C@H](CN1CCOCC1)[C@H](O)c1ccccc1", "note": "[PDMP, D-threo-1phenyl-2-decanoylamino-3-morphilino-propanol]", "values": [{"measurement": "IC50", "setting": "[6]; enzyme assay for LPLA2 (transacylase) activity, read-out: IC50 / half maximal inhibition of LPLA2 activity", "result": "30 µM and 50 µM"}, {"measurement": "inhibition of LPLA2 transacylase and phospholipase A2 activity (in words)", "setting": "[6]", "result": "potently inhibited"}, {"measurement": "total phospholipid content", "setting": "[7]; MDCK cells incubated for up to 7 days, 15 μM, FIG. 1B", "result": "Modest, but significant increases"}, {"measurement": "content of phosphatidylethanolamine and phosphatidylcholine", "setting": "[7]; MDCK cells, time-dependent changes, FIG. 1C/1D", "result": "increased"}, {"measurement": "lysosomal phospholipid inclusions by electron microscopy", "setting": "[8]", "result": "obvious lysosomal phospholipid inclusions"}, {"measurement": "induction of lysosomal lamellar inclusions", "setting": "[9]", "result": "induced lysosomal lamellar inclusions"}]}
{"smiles": "O=C1O/C(=C/Br)CCC1c1cccc2ccccc12", "note": "(centres unmarked) [bromoenollactone]", "values": [{"measurement": "inhibition of enzyme activity", "setting": "[1]", "result": "did not inhibit"}, {"measurement": "inhibition of enzyme activity", "setting": "[1]; listed as bromoenol lactone", "result": "insensitive"}]}
{"smiles": "CCCCc1oc2ccccc2c1C(=O)c1cc(I)c(OCCN(CC)CC)c(I)c1", "note": "[Amiodarone, amiodarone]", "values": [{"measurement": "inhibition of LPLA2 transacylase and phospholipase A2 activity (in words)", "setting": "[6]", "result": "comparable to but greater than PDMP"}]}
